Test results taken from US20050019746A1, “Apoptosis-related kinase/GPCRs” (EiRx Therapeutics Limited, priority 2003, published 2005).

Assays:
[1] = test system: target gene mRNA in TF1 cells; test: Knockdown by RNAi, QPCR, TF1 cells; format: cell-based, human; conditions: 48 hrs post transfection, relative to missense control; for % Knockdown by RNAi, TF1 + GMCSF: TF1 with GM-CSF; for % Knockdown by RNAi, TF1 − GMCSF: TF1 without GM-CSF
Method: In the case of TF1 cells, 2×10^5 cells/ well are transfected with 2 μg of siRNA in each well of a 24 well plate using […] DMRIE-C reagent (InVitrogen) per ml of Optimem (Gibco). Cells are simultaneously transfected in parallel with a control missense siRNA. Recombinant GM-CSF at 2 ng/ml is added to the OPTI-MEM media during transfection. The transfection media is replaced after four hours with fresh RPMI 1640 containing […] GMSCF and 10% FCS and incubated at 37° C. Twenty-four hours post-transfection, the media are changed; RPMI 1640+10% FCS containing […] GMSCF is added to 3 wells and RPMI 1640+10% FCS without GMSCF is added to the other 3 wells. These cells are harvested 48 and 72 hours post transfection for QPCR and phenotypic assays. Control TF1 cells, which are not transfected, are similarly treated. Samples are labeled T48+G, T48−G, according to the time of harvesting post-transfection and the presence (+G) or absence (−G) of GM-CSF in the media. RNA is isolated, cDNA is reverse transcribed and QPCR is performed as described above. Short Term (72 hrs post transfection) Cell Viability/Apoptosis assays employed are discussed below.
After DMRIE transfections with siRNA Oligos against the apoptosis associated genes identified herein, or controls, cells are harvested at 24 or 48 hours post transfection as stated previously. RNA is then extracted using RNeasy Miniprep columns (Qiagen 74104) after lysis on KIAshredder columns (Qiagen 79654). RNA is quantified by spectrophotometric analysis and 1 μg is reverse transcribed into cDNA using SuperScriptII RNAseH-Reverse Transcriptase (Invitrogen 18064-014). The levels of transcript are compared by QPCR as described in detail in Example 3, relative to missense controls. QPCR primers are designed to amplify a PCR product of approximately 100 to 300 nucleotides in length from the CDS, following the guidelines outlined in the Quantitect SYBR Green PCR handbook from Qiagen.
Two template standards are used for quantitative PCR assessment of mRNA levels: • 1. A control RPS13 i.e. Ribosomal Protein Sub unit 13 (NM_001017) amplified PCR product diluted to [1000,100,10,1 and 0.1 fg] respectively, used to quantify the level of transcript; • 2. RPS13 amplified from sample templates as separate PCR reactions for normalisation purposes.
The cDNA templates from appropriate cell lines transfected with either gene specific, positive control e.g. Survivin or missense control siRNA are amplified with gene-specific QPCR primers using QuantiTectSYBR Green PCR kit (Qiagen 204143) on a DNA Engine Opticon System (MJ Research) (as described in detail in Example 3). The amplification conditions include a 95° C. step for 15 min for initial activation of HotStarTaq DNA polymerase, followed by 35 cycles of (15 s at 94° C., 30 s at 60° C., 30 s at 72°). The fluorescence of the samples at 521 nm is read between the annealing and extension steps of the protocol. The melting curves are calculated at the end of the 35 cycles and confirm product homogeneity.
A standard curve is plotted using the log [template quantity] of the RPS 13 control template dilutions (as above) versus cycle number at which the fluorescence intensity measured in the well exceeds the level specified in the cycle threshold parameters (the C(T) value). An estimate of the quantity of initial template in treatment samples is determined from this plot and the amount of target mRNA present in each sample is normalized across samples by calculating the ratio of target to RPS13 for each sample.
The normalised expression values are used to estimate percentage knockdown of target with reference to the control, transfected, cells (in this case cells transfected with missense siRNA).

PC3 cells = test: 10-14 day Clonagenicity Assay (MTT), PC3; format: cell-based, human; conditions: for percentage survival relative to the missense, n = 1: independent experiment n = 1, dilution point of maximum toxicity; for percentage survival relative to the missense, n = 2: independent experiment n = 2, dilution point of maximum toxicity; for percentage survival relative to the missense, n = 3: independent experiment n = 3, dilution point of maximum toxicity
Text: The Clonagenicity Assay represents a Cell Viability Screen that allows assessment of a cytotoxic insult at a variety of seed densities of cancer cell lines over an extended period of logarithmic growth, such that the definitive effect of the test substance can be accurately quantified. In this instance, the ‘cytotoxic insult’ to be tested involves the transfection of siRNA Oligomers to knockdown the expression of novel target Kinases and GPCRs as outlined previously. Cell number is quantified 10-14 days post siRNA transfection by MTT conversion as described in detail in Example 6.
The Clonagenicity Assay is optimised for each cell line examined with respect to seed number. The seed number varies for each cell line and accounts for the differences in cell size, growth rate and sensitivity to transfection-induced toxicity for each cell line pursued. Cells lines given as models for this example include HCT15, MCF7, A549, SKOV3, DU145, U251, PC3, A498 and HeLa. The siRNA oligo to Survivin serves as a positive control for toxicity in this assay and the missense control oligomer acts as a negative control as described in detail in Examples 5 and 6. The c-Raf, BCL2 and PI3K siRNA oligomers serve as additional controls as previously mentioned. The Clonagenicity assay is performed as outlined below.
Cells are seeded into a 96-well plate as described below and allowed to adhere overnight at 37° C. in a humidified atmosphere containing 5% CO2 in air. Wells are seeded with an appropriate cell number (cell line dependent) in Column 1 of the 96 well plates and this cell suspension is diluted 1 in 2 across the 96 well plates from Column 1 through to 6 (represented on the x-axis in results). Cells are next transfected with siRNA Oligomers, at a concentration of 2 μg/ml, against the genes of interest. Transfections continue for 4 hrs after which the transfection solution is removed and cells are refed with fresh medium and allow to incubate overnight. An additional media change@24 hrs post transfection is made to minimise toxicity of the transfection reagent. Cells are subsequently incubated for a 10-14 Day period post transfection at a 37° C. incubation as described above. Medium is renewed weekly following which MTT quantification is performed as described in Example 5.
To be considered cytotoxic, the siRNA Oligo against the gene target must induce a decreased viability in a cell line across at least 2 seed densities in the clonagenicity assay, such that a significant difference between the target gene and MS is observed i.e. no crossing of the Standard Error bars is detected. The average percentage viability, relative to missense, is recorded for the dilution point at which Maximum Toxicity is induced is recorded in Table 13.
Table 13 Clonagenicity Assay—This table gives the average percentage survival of the indicated cell lines relative to the missense in a clonagenicity assay, over 3 independent experiments. As an internal reference, the known survival gene ‘Survivin’, BCL2, c-Raf and PI3KR1 was also targeted by siRNA. When no Cytotoxic response is detected ‘-’ is recorded.

Substance | % Knockdown by RNAi, TF1 + GMCSF [1] | % Knockdown by RNAi, TF1 − GMCSF [1] | percentage survival relative to the missense, n = 1 (PC3 cells) | percentage survival relative to the missense, n = 2 (PC3 cells) | percentage survival relative to the missense, n = 3 (PC3 cells)
siRNA EKI: siRNA duplex, sense GCACUGGAUCCAAAGCAUGtt, antisense CAUGCUUUGGAUCCAGUGCtt; same in Tables 9 and 11 (sense GCACUGGAUCCAAAGCAUGTT; antisense CAUGCUUUGGAUCCAGUGCTT; chemistry not given here) | 46% | 58% | 62% | 40.4% | 39.7%
siRNA FLT4: sense GUACGGCAACCUCUCCAACtt, antisense GUUGGAGAGGUUGCCGUACtt (sense GUACGGCAACCUCUCCAACTT; antisense GUUGGAGAGGUUGCCGUACTT; chemistry not given here) | – | – | – | 71.7% | 8.4%
siRNA GRAF: siRNA duplex, sense GCGGAAGUUUGCAGAUUCCtt, antisense GGAAUCUGCAAACUUCCGCtt; same in Tables 9 and 11 (sense GCGGAAGUUUGCAGAUUCCTT; antisense GGAAUCUGCAAACUUCCGCTT; chemistry not given here) | 56% | 73% | – | – | –
siRNA MAK: sense GAAGCCAAGCAUGGGUGUUtt, antisense AACACCCAUGCUUGGCUUCtt (sense GAAGCCAAGCAUGGGUGUUTT; antisense AACACCCAUGCUUGGCUUCTT; chemistry not given here) | – | – | 69.6% | – | –
siRNA MAPKK5: sense GAGGACAGGUUAAGCUGUGtt, antisense CACAGCUUAACCUGUCCUCtt (sense GAGGACAGGUUAAGCUGUGTT; antisense CACAGCUUAACCUGUCCUCTT; chemistry not given here) | – | 70% | 30.5% | – | 8.3%
siRNA MKNK: sense UACAUGGCCCCUGAGGUAGtt, antisense CUACCUCAGGGGCCAUGUAtt (sense UACAUGGCCCCUGAGGUAGTT; antisense CUACCUCAGGGGCCAUGUATT; chemistry not given here) | 65% | – | – | – | 8.4%
siRNA NTKL: siRNA duplex, sense UGUGGAGCUGAUGAAGCACtt, antisense GUGCUUCAUCAGCUCCACAtt; same in Tables 9 and 11 (sense UGUGGAGCUGAUGAAGCACTT; antisense GUGCUUCAUCAGCUCCACATT; chemistry not given here) | – | – | 11.6% | 45.7% | 14.4%
siRNA P14KB: sense GCUACGGAAGCUGAUCCUCtt, antisense GAGGAUCAGCUUCCGUAGCtt (sense GCUACGGAAGCUGAUCCUCTT; antisense GAGGAUCAGCUUCCGUAGCTT; chemistry not given here) | – | 40% | – | – | 8.4%
siRNA PCTAIRE: sense GUCAGUGCCCACAAAGACUtt, antisense AGUCUUUGUGGGCACUGACtt (sense GUCAGUGCCCACAAAGACUTT; antisense AGUCUUUGUGGGCACUGACTT; chemistry not given here) | 20% | 70% | – | – | –
siRNA PSKH1: sense GAACCUGCACCGCUCCAUAtt, antisense UAUGGAGCGGUGCAGGUUCtt (sense GAACCUGCACCGCUCCAUATT; antisense UAUGGAGCGGUGCAGGUUCTT; chemistry not given here) | – | 60% | 29.8% | – | –
siRNA ROCK: siRNA duplex, sense UACAUGCCUGGUGGAGAUCtt, antisense GAUCUCCACCAGGCAUGUAtt; same in Tables 9 and 11 (sense UACAUGCCUGGUGGAGAUCTT; antisense GAUCUCCACCAGGCAUGUATT; chemistry not given here) | – | – | 50.4% | 32.3% | 22.8%
siRNA Survivin: positive control siRNA, sense GAACUGGCCCUUCUUGGAGtt, antisense CUCCAAGAAGGGCCAGUUCtt (sense GAACUGGCCCUUCUUGGAGTT; antisense CUCCAAGAAGGGCCAGUUCTT; chemistry not given here) [reference compound] | 20% | – | 39.2% | – | 83.6%
